No end group written: not given here. PVA‑NB hydrogel particulates = not defined here
How the values were obtained:
whole blood = assay: Rotational thromboelastometry (ROTEM) of recalcified citrated whole blood; format: cell-based, human; conditions: for clotting time (CT) vs saline control / clot formation time (CFT) vs saline control: 1 mM; for clotting time (CT) vs saline control: FIG. 8A; for clot formation time (CFT) vs saline control: FIG. 8B; for clotting time (CT) as % of the physiological CT: whole blood
Excerpt: ROTEM (TEM Innovation, Germany) was applied to monitor the interactions of platelet-activating polymers and whole blood over time. ROTEM system contains an oscillating sensor pin that is immersed in a temperature-controlled cuvette containing the blood sample. Four measurements can be performed in parallel in the same device. Generally, coagulation of the citrated blood sample is initiated by re-calcification. The formation kinetics of a fibrin clot could be monitored mechanically and calculated by an integrated computer to the typical curves and numerical parameters.
Blood was collected from three un-medicated and healthy donors using minimal stasis from an antecubital vein through a 21-gauge needle. After discarding the first 3 ml, blood was collected in 3.5 ml tubes (Vacuette; Greiner Bio-One) containing 0.3 ml buffered 3.2% sodium citrate. The samples were kept on a pre-warming stage at 37° C. for at least 10 min prior to analysis and were processed within 3 h. ROTEM analysis of the whole blood sample was initiated by recalcification with the addition of 20 μl of CaCl2 (star-TEM®, 200 mM). Polymer solutions and/or polymer suspensions were added directly to the cuvette immediately after recalcification of the citrated blood and mixed by gently pipetting up and down as previously reported.^[21] The final reaction volume per ROTEM cuvette was 370 μl, consisting of 300 μl citrated whole blood, 20 μl CaCl2 and 50 μl polymer solution or polymer suspension.
We next studied the hemostatic efficacy of PVA-TRAP6 in comparison with TRAP6 and PVA-NB using rotational thromboelastometry (ROTEM),^[21, 22] which is a clinical diagnostic tool allowing in situ characterization of viscoelastic properties of blood clot during coagulation. […] Clotting time (CT) refers to the latency until the clot reaches a firmness of 2 mm while maximum clot firmness (MCF) refers to the maximum amplitude of the curve, which indicates the absolute strength of the clot.

platelets [1] = assay: FACS analysis of platelet activation (CD41/CD62p co-expression); format: cell-based, human
Procedure: The blood of two unmedicated and healthy donors was collected and stabilized by sodium citrate. […] Twenty microliter of TRAP6-C solution (14 mg mL^−1) and/or 20 μL of NaCl solution (0.9%) were added as the positive control and the negative control, respectively. The incubated mixture was mixed with 300 μL of 1% paraformaldehyde for 15 min at room temperature. After washing and centrifugation a double immuno-staining was performed using 20 μL of phycoerythrin (PE) labeled monoclonal antibody directed against CD41 and 20 μL of allophycocyanin (APC) labeled monoclonal antibody directed against CD62P. Isotype controls were incubated with mouse IgG antibodies conjugated with APC or PE dye, respectively (all antibodies were purchased from BD Biosciences, Heidelberg, Germany). After 30 min incubation at room temperature the activation state of the platelets was determined using fluorescence flow cytometry. Expression of the platelet activation marker CD62P and the constitutively present platelet marker CD41 were detected using a Beckmann Coulter Cytomics FC-500 equipped with Uniphase Argon ion laser, 488 nm, 20 mW output. Overall 100 000 platelets were measured per sample and analyzed with the Cytomics CXP software. The experiment was repeated twice.
We next utilized flow cytometry (FACS) to quantify the extent of platelet activation. Platelets can be distinguished from other blood cells by the constitutive expression of the surface antigen CD41, which recognizes the platelet membrane glycoprotein GpIIb which is non-covalently associated with GpIIIa (the integrin beta 3 chain) to form the GpIIb/IIIa complex. Importantly, the CD62p (P-selectin) membrane glycoprotein is exclusively expressed on activated platelets. The CD62p marker was used to identify the extent of activation in human platelets after incubation with the studied materials (PVA-TRAP6, TRAP6, PVA-NB, and NaCl).

platelets [2] = assay: Multiplate platelet aggregation assay in hirudinized whole blood; format: cell-based, human; conditions: for aggregation area: 0.1 mM TRAP6 equivalent, 6 min measurement
Procedure: The principle of Multiplate test is based on the fact that platelets become sticky upon activation, and thus prone to adhere and aggregate on the metal sensor wires in the Multiplate test cuvette. The sensor wires are made of highly conductive copper, which is silver-coated. As activated platelets adhere and aggregate on the sensor wires, the electrical resistance between the wires rises, which can be monitored in real time. For each measurement, 300 μL of saline and 300 μL of hirudinized whole blood was added sequentially to a Multiplate cuvette. After 3 min incubation at 37° C., 20 μL of sample solution was added and at the same time the program started to collect signals. The Multiplate device allows 4 measurements in parallel. Each measurement was performed for 6 min and in duplicate.
In order to quantify the extent of platelet activation, we utilized Multiplate assay to investigate the influence of PVA-TRAP6, TRAP6 and PVA-NB on platelet aggregation. The principle of this method is based on the fact that platelets become sticky upon activation, and thus prone to adhere and aggregate on the metal sensor wires in the Multiplate test cuvette. As activated platelets adhere and aggregate on the sensor wires, the electrical resistance between the wires rises, which can be continuously monitored. […] One key parameter of Multiplate assay is aggregation area (in Units), i.e. the area underneath the aggregation curve.

platelets [3] = conditions: from reference [12]; cited from earlier work

Procedure for C2C12 myoblasts: Cytotoxicities of PVA, PVA-NB and PVA-TRAP6 macromer solutions were evaluated via MTT assay. C2C12 cells were cultured in Dulbecco's Modified Eagles Medium (DMEM) supplemented with 5% fetal calf serum (FCS), 1% L-Glutamine, 1% Penicillin/Streptomycin (all from Sigma-Aldrich, Austria). Macromer solutions with three concentrations (5%, 1% and 0.1%) were prepared in DMEM culture medium. C2C12 cells were then seeded in a 96-well plate at a density of 5×10^3 cells per well in 200 μL of culture medium. After 24 h incubation (37° C., 5% CO2), 100 μL of the respective macromer solutions were added to the cells in triplicates. After 24 h incubation, cells were washed twice with sterile PBS before the addition of 100 μL thiazolyl blue tetrazolium bromide (MTT) working solution (5 mg/mL in PBS). After 1 h incubation, the liquid was discarded and 100 μl of DMSO was added to dissolve the formazan crystals. Finally, the absorbance was measured at 540 nm using a microplate reader.

In the case of “PEG-TRAP6: PEG-10k-NHS reacted with the N-terminus of TRAP6, unreacted NHS groups blocked with glycine ({PEG 10 kDa}-SFLLRNPNC; also: unreacted NHS groups of PEG blocked with glycine) [reference compound]”, the “clotting time (CT) vs saline control” value (whole blood) is reported as “this effect was lost” and the “clot formation time (CFT) vs saline control” value (whole blood) is reported as “this effect was lost”.
In the case of “PVA-TRAP6-P: insoluble crosslinked PVA-NB hydrogel particulates surface-functionalized with TRAP6-Cys peptide (SFLLRNPNC(PVA‑NB hydrogel particulates); reading uncertain)”, the “clotting time (CT) as % of the physiological CT” value (whole blood; particulate suspension 10 wt % in saline) is reported as about 50%, the “platelet activation vs soluble TRAP6 control (FACS)” value (platelets [1]; particulates) is reported as “comparable extent as soluble TRAP6 control” and the “percentage of activated platelets (CD41+/CD62p+)” value (platelets [1]; particulates, 15 min incubation, whole blood) is reported as about 55%.
For “PVA-TRAP6: water-soluble conjugate of cysteine-containing TRAP6 peptide (SFLLRNPNC) on PVA-norbornene backbone by thiol-ene photo-click conjugation (SFLLRNPNC(PVA‑norbornene 22 kDa))”, the “cytotoxicity (MTT assay)” value (C2C12 myoblasts) was “nontoxic”, the “clotting time (CT)” value (whole blood; 0.1 mM TRAP6 equivalent, compared with TRAP6 0.1 mM) was “very comparable to that of TRAP6” and the “maximum clot firmness (MCF)” value (whole blood; 0.1 mM, compared with TRAP6 control) was “relatively less than that of TRAP6 control”. For the same substance, the “clotting time (CT) vs saline control” value (whole blood) was “significantly shorten”, the “clot formation time (CFT) vs saline control” value (whole blood) was “significantly shorten” and the “clotting time (CT) as % of the physiological CT” value (whole blood; 0.1% PVA-TRAP6 solution) was about 45%. For the same substance, the optimal hemostatic concentration (whole blood; peptide concentrations tested 0.01, 0.1, 1 mM, CT) was 0.1 mM, the platelet aggregation curve (platelets [2]; 0.1 mM) was “comparable to that of TRAP6” and the aggregation area (platelets [2]) was 130 U. The “total platelet aggregation area” value (platelets [2]; 1 mM, FIG. 9A) was “comparable to that of TRAP6”, the “platelet activation (CD41/CD62P co-expression)” value (platelets [1]; 1 mM, FIG. 9B) was “very similar level as TRAP6 control” and the “CD41/CD62p co-expression (CD62p expression in CD41 positive cells)” value (platelets [1]; 15 min incubation, 0.1 mM, soluble system) was about 80%.
In the case of SFLLRN [TRAP6, reference compound], the “clotting time (CT) vs saline control” value (whole blood) is reported as “significant decrease”, the “clot formation time (CFT) vs saline control” value (whole blood) is reported as “significant decrease” and the “dose influence on CT” value (whole blood; peptide concentrations 0.01, 0.1, 1 mM) is reported as “no significant dose influences”. For the same substance, the aggregation area (platelets [2]) was 147 U and the “effective TRAP6-concentration for platelet activation” value (platelets [3]) was 5 to 100 µM.

Reference: patent US20180243465A1, “HEMOSTATIC MATERIAL” (BAXTER INTERNATIONAL INC., priority 2015, published 2018)
